From patent US20090124587A1, “METHODS FOR TREATING CANCER USING 17alpha-HYDROXYLASE/C17,20-LYASE INHIBITORS” (priority 2007, published 2009)
Read-outs that look alike come from different tables or passages of the source.

Experiment: Pharmacokinetic study of abiraterone in hormone refractory prostate cancer patients, oral doses 250-2000 mg/day, fasted
Assay type: in vivo, human
Conditions: mean, fasted, plasma; for AUC(0-t) / Cmax / Tmax / AUC(0-inf): male, human; for AUC(0-inf): read-out: AUCINF_obs
Description: A group of 15 subjects was divided into five groups. Members of each group were orally administered doses of 250 mg/day, 500 mg/day, 750 mg/day, 1000 mg/day or 2000 mg/day once a day. Before administration the subjects had fasted. PK blood samples were measured at 1, 2, 4, 6, 8, 24, and 72 hours post dose.
To measure the amount of abiraterone and abiraterone acetate in the samples, these compounds were extracted from 100 uL human plasma using solid phase extraction (SPE) with cation mixed-mode polymer cartridges. Extracts were evaporated to dryness before reconstitution and analysis. Chromatography was carried out using a Luna™ C5 column (5 μm, 50 mm×2.1 mm id) with a gradient mobile phase consisting of 10 mM ammonium acetate and 2% propan-2-ol in acetonitrile. The flow rate was 0.2 mL/min and the run time 10.5 minutes. Abiraterone and abiraterone acetate were ionized using the electrospray interface in positive ion mode. Detection of analytes was via tandem mass spectrometry (MS/MS) in the multiple reaction monitoring (MRM) mode.
PK modeling was conducted using a non-compartmental model, extra vascular input for plasma with WinNonLin Software®. Pharmacokinetic parameters estimated in the model include: […]

[1] = 250 mg/day abiraterone acetate oral
[2] = 500 mg/day abiraterone acetate oral
[3] = 750 mg/day abiraterone acetate oral
[4] = 1000 mg/day abiraterone acetate oral
[5] = 2000 mg/day abiraterone acetate oral

Which AUC(0-t) [1] does the source give for `C[C@]12CC[C@H](O)CC1=CC[C@@H]1[C@@H]2CC[C@]2(C)C(c3cccnc3)=CC[C@@H]12` [Abiraterone] here?
Its AUC(0-t) is 1.25 µM·h.

What about the Cmax [1] of the same molecule?
The Cmax was 219 nM.

And the Tmax [1]?
Its Tmax is 2.05 h.

What about the AUC(0-inf) [1] of the same molecule?
The AUC(0-inf) was 1.37 µM·h.

What about the AUC(0-t) [2] of the same molecule?
Its AUC(0-t) is 1.33 µM·h.

And the Cmax [2]?
Its Cmax is 284 nM.

And the Tmax [2]?
Its Tmax is 2.59 h.

What about the AUC(0-inf) [2] of the same molecule?
Its AUC(0-inf) is 1.45 µM·h.

And the AUC(0-t) [3]?
Its AUC(0-t) is 4.29 µM·h.

What about the Cmax [3] of the same molecule?
The Cmax was 1030 nM.

What about the Tmax [3] of the same molecule?
Its Tmax is 1.71 h.

And the AUC(0-inf) [3]?
The AUC(0-inf) was 4.54 µM·h.

What about the AUC(0-t) [4] of the same molecule?
The AUC(0-t) was 5.03 µM·h.

What about the Cmax [4] of the same molecule?
Its Cmax is 659 nM.

What about the Tmax [4] of the same molecule?
The Tmax was 3.09 h.

And the AUC(0-inf) [4]?
The AUC(0-inf) was 5.32 µM·h.

What about the AUC(0-t) [5] of the same molecule?
The AUC(0-t) was 4.75 µM·h.

And the Cmax [5]?
Its Cmax is 531 nM.

What about the Tmax [5] of the same molecule?
The Tmax was 2.67 h.

And the AUC(0-inf) [5]?
Its AUC(0-inf) is 4.98 µM·h.

And the Cl_F_obs [1]?
The Cl_F_obs was 567.2 L/h.

And the HL_Lambda_z [1]?
The HL_Lambda_z was 11.6 h.

And the Vz_F_obs [1]?
Its Vz_F_obs is 10772.0 L.

And the Cl_F_obs [2]?
Its Cl_F_obs is 1347.2 L/h.

What about the HL_Lambda_z [2] of the same molecule?
Its HL_Lambda_z is 9.5 h.

What about the Vz_F_obs [2] of the same molecule?
Its Vz_F_obs is 14032.5 L.

And the Cl_F_obs [3]?
Its Cl_F_obs is 494 L/h.

What about the HL_Lambda_z [3] of the same molecule?
Its HL_Lambda_z is 10.8 h.

What about the Vz_F_obs [3] of the same molecule?
Its Vz_F_obs is 8340 L.

And the Cl_F_obs [4]?
The Cl_F_obs was 861.6 L/h.

And the HL_Lambda_z [4]?
The HL_Lambda_z was 9.9 h.

What about the Vz_F_obs [4] of the same molecule?
Its Vz_F_obs is 10125.5 L.

What about the Cl_F_obs [5] of the same molecule?
Its Cl_F_obs is 1280.3 L/h.

And the HL_Lambda_z [5]?
Its HL_Lambda_z is 12.0 h.

What about the Vz_F_obs [5] of the same molecule?
Its Vz_F_obs is 21598.8 L.
